Reference: ChEMBL document CHEMBL1201862, “PubChem BioAssay data set” (2004)
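These data come from cells grown in 96-well plates and exposed to compound for 48 hours at five concentrations. Here, GI50 denotes the concentration required for 50% inhibition of growth.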 The source made the active and inactive calls. No stated cut-off is given here; in the data, active = GI50 up to about 1.1 µM and inactive = higher.

Key:
Test in all cases: NCI tumour cell line growth inhibition, 48 h
[1] = system: MDA-N
[2] = system: A498
[3] = system: ACHN
[4] = system: HOP-92
[5] = system: DU-145
[6] = system: NCI-H226
[7] = system: 786-0
[8] = system: Malme-3M
[9] = system: M14
[10] = system: HCT-116
[11] = system: MDA-MB-231
[12] = system: SK-MEL-2
[13] = system: UACC-62
[14] = system: U-251
[15] = system: SN12C
[16] = system: CCRF-CEM
[17] = system: UACC-257
[18] = system: HCC 2998
[19] = system: NCI-H23
[20] = system: COLO 205

Measured: GI50

COC(=O)N/N=C(/CC1(O)C(=O)Nc2ccc([N+](=O)[O-])cc21)c1ccccc1 (stereo not given)
inactive: [1] 39.4 µM | [2] 14 µM | [3] 33.3 µM | [4] 33 µM | [5] > 100 µM | [6] 40.9 µM | [7] 25.4 µM | [8] 33 µM | [9] 34 µM | [10] 24.1 µM | [11] 18.3 µM | [12] 31.2 µM | [13] 24.7 µM | [14] 29.9 µM | [15] > 74 µM | [16] 29.6 µM | [17] 42.4 µM | [18] 67.1 µM | [19] 21.3 µM | [20] 50.7 µM
